# Experimental data from patent US20060004095A1, “Use of acetyl L-carnitine for the preparation of a medicine for the treatment of neuropathic pain in diabetic patients” (priority 2004, published 2006).
# Assays:
# [1] = test system: patients with type 2 diabetes not on insulin treatment; experiment: Double-blind placebo-controlled clinical trials in diabetic peripheral neuropathy, VAS pain assessment; population not on insulin; format: in vivo, human; conditions: active only at the higher dose (3 g/day)
# Description: (§1) Two double-blind placebo-controlled clinical trials, identical in their experimental design, were conducted in patients with diagnoses of diabetic peripheral neuropathy selected according to the criteria established in the San Antonio, Tex. conference (Diabetes 37:1000-1004, 1988).
# (§2) Acetyl L-carnitine was administered orally at doses of 1.5 g/day and 3.0 g/day for continuously for 52 weeks.
# (§3) One objective of the studies consisted in the possible modification of the Visual Analogue Scale (VAS) (Scott J. Huskisson EC. Graphic representation of pain. Pain 1976;2:175-184) in the subjective assessment of pain symptoms and the main sensorimotor clinical parameters.
# [2] = test system: type I and II diabetics with symmetrical distal polyneuropathy or multineuropathy; conditions: patients treated with acetyl L-carnitine out of 333 recruited; cited from earlier work
# [3] = test system: patients with type 2 diabetes on insulin treatment; experiment: Double-blind placebo-controlled clinical trials in diabetic peripheral neuropathy, VAS pain assessment; population on insulin; format: in vivo, human; conditions: even at the higher dose
# Description: as §1, §2, §3
# The second population comprised patients with type 2 diabetes treated with insulin. Here, too, the population included a placebo group (Group 4) matching up to the same inclusion criteria as the patients treated with acetyl L-carnitine (on insulin treatment).
smiles,measurement,setting,value
"CC(=O)O[C@H](CC(=O)[O-])C[N+](C)(C)C [Acetyl L-carnitine, acetyl L-carnitine]",activity compared to the placebo group at the end of treatment,[1],active in a dose-related manner
same,patients presenting an improvement in pain symptoms,[2],39%
same,activity compared to the control group,[3],no statistically significant difference in activity
